Results reported in patent US20020168389A1, “Stable skin conditioning compositions containing retinoid boosters” (priority 2000, published 2002).
pIC50: −log10 of the molar value.

Key:
TGase I = test: Transglutaminase (TGase I ELISA) assay in cultured keratinocytes with retinol; type: cell-based; details: Keratinocyte, read-out: Overall TG (IC 50)
Retinal Reductase = test: Assay for Retinal Reductase Activity, rat liver microsomes (to identify B3); type: biochemical; details: test compound final 100 μM
Procedure: The resulting homogenate was successively centrifuged for 30 min. at 10,000 g, 30 min. at 20,000 g, and 15 min. at 30,000 g, and the resulting supernatant was ultracentrifuged for 80 min. at 105,000 g. […] Protein concentrations were determined as described above. […] All stock solution were prepared as above with the following substitutions: 10 mM all trans Retinaldehyde (Sigma R2500) in DMSO—instead of retinol. 200 mM, Nicotinamide adenine dinucleotide phosphate, reduced form, tetrasodium salt (NADPH) (Sigma N7505) in sterile water—instead of NADP. In a two-dram glass vial with screw cap, add the following in order: […] 25 μl diluted Microsomes (final=100 μg)—use boiled Microsomes for controls and regular Microsomes for test samples. […] 3 μl of 10 mM retinaldehyde (final=75 μM) Follow the same incubation and extraction procedure as detailed above. […] Aliquots of 60 μL were injected immediately and analyzed for retinoid content. The chromatography instrumentation consisted of a Waters 600 gradient controller/pump, a Waters 996 Photodiode Array detector and a Waters 474 Scanning Fluorescence detector. Two HPLC protocols were used for retinoid analysis. […] The eluate was monitored for absorbance at 325 nm and fluorescence at 325 ex/480 em. […] B. Barua, “Analysis of Water-Soluble Compounds: Glucuronides”, Methods Enzymol. 189, 136-145 (1990). […] These protocols were selected based on their ability to clearly resolve pertinent retinoid acids, alcohols, aldehydes, and/or esters for each assay and relative quickness of separation. Identification of individual retinoids by HPLC was based on an exact match of the retention time of unknown peaks with that of available authentic retinoid standards and UV spectra analysis (300-400 nm) of unknown peaks against available authentic retinoids.

Retinol Dehydrogenase = test: Assay for Retinol Dehydrogenase Activity, rat liver microsomes (to identify B2); type: biochemical; details: ranking among B2 compounds
Procedure: The resulting homogenate was successively centrifuged for 30 min. at 10,000 g, 30 min. at 20,000 g, and 15 min. at 30,000 g, and the resulting supernatant was ultracentrifuged for 80 min. at 105,000 g. […] Protein concentrations were determined as described above.
2.4 Assay for Retinol Dehydrogenase Activity (To identify B2)
The following stock solutions were prepared:
50 mM KH2PO4, pH 7.4 buffer, sterile filtered.
10 mM all trans Retinol (Sigma R7632) in DMSO.
200 mM Nicotinamide adenine dinucleotide phosphate, sodium salt (NADP) (Sigma N0505) in sterile water.
40 mM test compound in appropriate solvent (water, buffer, ethanol, chloroform or DMSO).
1:10 dilution of rat liver Microsomes in 50 mM KH2PO4, pH 7.4 buffer (4 ug/ul).
In a two-dram glass vial with screw cap, add the following in order:
Buffer to give a final volume of 400 μl
25 μl diluted Microsomes (final=100 μg)−use boiled Microsomes for controls and regular Microsomes for test samples.
4 μl of 200 mM NADP (final=2 mM)
1 μl of 40 mM test compound (final=100 μM)
8 μl of 10 mM retinol (final=200 μM) […]
Aliquots of 60 μL were injected immediately and analyzed for retinoid content.
The chromatography instrumentation consisted of a Waters 600 gradient controller/pump, a Waters 996 Photodiode Array detector and a Waters 474 Scanning Fluorescence detector. […] The eluate was monitored for absorbance at 325 nm and fluorescence at 325 ex/480 em. […]

| Compound | % lnhibition Retinal Reductase (Retinal Reductase) | further results |
| --- | --- | --- |
| Oc1cccc2cccnc12 [Hydroxyquinoline, Hydroxyquinoline (Carbostyril)] |  | pIC50 (TGase I): 3.44 |
| CCCCCCCCCCCCCC(=O)O [Myristic Acid] | 26% |  |
| COc1cc(C=O)ccc1O [Vanillin] | 6% |  |
| Phosphatidyl Choline |  | activity as activator of Retinol Dehydrogenase (in words) (Retinol Dehydrogenase): Most preferred as most active activator of |
| Phosphatidyl ethanolamine | 37% |  |
